Consider 13 compounds from patent publication US20260356851A1, “TRICYCLIC COMPOUNDS AND USES THEREOF” (HUTCHMED LIMITED, priority 2023, published 2026).

What all share (type): cell-based
Assay [1] has as its target T1, pERK1/2 (Thr202/Tyr204), NCI-1H358 (KRAS G12C) (Homo sapiens, UniProt P01116, G12C).
T1 construct: pERK1/2 HTRF read-out
Description: Assay of intracellular pERK1/2 (Thr202/Tyr204) phosphorylation in NCI-H358 cells (KRAS G12C). The gist of the method:
(§1)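 Cells (10000-12000/well) exposed to 3-fold compound dilutions for 2 days at 37 °C, then lysed; pERK1/2 (Thr202/Tyr204) measured by HTRF with d2 and cryptate antibodies, 665/615 nm ratio.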

The target of assay [2] is T2, pERK1/2 (Thr202/Tyr204), PANC-1 (KRAS G121D) (Homo sapiens, UniProt P01116, G12D).
T2 construct: pERK1/2 HTRF read-out
T2 sequence (P01116 1-188 isoform P01116-2 G12D): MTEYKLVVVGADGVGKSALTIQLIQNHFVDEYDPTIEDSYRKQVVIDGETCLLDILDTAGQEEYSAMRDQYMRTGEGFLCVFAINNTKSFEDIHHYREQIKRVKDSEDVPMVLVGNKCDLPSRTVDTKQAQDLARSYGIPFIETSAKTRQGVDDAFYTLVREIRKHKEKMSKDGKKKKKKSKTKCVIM
Description: Assay of intracellular pERK1/2 (Thr202/Tyr204) phosphorylation in PANC-1 cells (KRAS G12D). The essentials: as §1

Assay [3] concerns the target T3, pERK1/2 (Thr202/Tyr204), NCI-1H441 (KRAS G12V) (Homo sapiens, UniProt P01116, G12V).
T3 construct: pERK1/2 HTRF read-out
Description: Assay of intracellular pERK1/2 (Thr202/Tyr204) phosphorylation in NCI-H441 cells (KRAS G12V). The gist of the method:
as §1

[4] abbreviates: pERK1/2, 2 days, read-out: NCI-H358 (KRAS G12C) IC50.
[5] abbreviates: pERK1/2, 2 days, read-out: PANC-1 (KRAS G12D) IC50.
The mark [6] stands for this setting: pERK1/2, 2 days, read-out: NCI-H441 (KRAS G12V) IC50.

Read-outs that look alike come from different tables or passages of the source. Bounds are passed on as bounds.

T1 sequence (P01116 1-188 isoform P01116-2 G12C): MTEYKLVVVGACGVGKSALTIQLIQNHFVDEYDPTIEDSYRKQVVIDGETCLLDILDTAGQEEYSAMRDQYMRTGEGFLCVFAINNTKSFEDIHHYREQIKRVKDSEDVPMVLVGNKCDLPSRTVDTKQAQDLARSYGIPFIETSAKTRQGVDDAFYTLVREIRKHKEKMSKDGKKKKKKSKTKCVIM
T3 sequence (P01116 1-188 isoform P01116-2 G12V): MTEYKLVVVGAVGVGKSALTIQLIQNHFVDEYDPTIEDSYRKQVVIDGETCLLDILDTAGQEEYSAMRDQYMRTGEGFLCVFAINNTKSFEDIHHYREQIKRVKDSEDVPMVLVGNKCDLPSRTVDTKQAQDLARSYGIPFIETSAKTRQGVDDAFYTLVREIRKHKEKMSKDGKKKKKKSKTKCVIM

As to `[2H]C1([2H])CC[C@@]2(C([2H])([2H])Oc3nc4c5c(nc(-c6cc(N)c(F)c(C)c6C(F)(F)F)c(F)c5n3)OCCN4C(C)c3cccnc3N)C[C@@]([2H])(F)CN12` (single isomer, unassigned; diastereomer 1) [Compound 178, (*)3-(1-(5-(5-amino-4-fluoro-3-methyl-2-(trifluoromethyl)phenyl)-4-fluoro-2-(((2R or 2S,7aS)-2-fluorotetrahydro-1H-pyrrolizin-7a(5H)-yl-2,5,5-d3)methoxy-d2)-8,9-dihydro-10H-7-oxa-1,3,6,10-tetraazacyclohepta[de]naphthalen-10-yl)ethyl)pyridin-2-amine (diastereomer 1)], the figures for the IC50 in assay [1] (setting [4]), in assay [2] (setting [5]) and in assay [3] (setting [6]) were 0.1 nM, 1 nM and 0.4 nM, respectively.
In the case of `Cc1c(F)c(N)cc(-c2nc3c4c(nc(OC[C@@]56CCCN5C[C@@]5(CC5(F)F)C6)nc4c2F)N(C(C)c2cccnc2N)CCO3)c1C(F)(F)F` (single isomer, unassigned; diastereomer 1) [Compound 238, (*)3-(1-(5-(5-amino-4-fluoro-3-methyl-2-(trifluoromethyl)phenyl)-2-(((1R or 1S,7a′S)-2,2-difluorodihydro-1′H,3′H-spiro[cyclopropane-1,2′-pyrrolizin]-7a′(5′H)-yl)methoxy)-4-fluoro-8,9-dihydro-10H-7-oxa-1,3,6,10-tetraazacyclohepta[de]naphthalen-10-yl)ethyl)pyridin-2-amine (diastereomer 1)], the IC50 in assay [1] (setting [4]) stood at 0.2 nM; in assay [2] (setting [5]) it was 0.8 nM; in assay [3] (setting [6]), 0.6 nM.
Turning to `Cc1c(F)c(N)cc(-c2nc3c4c(nc(OCC56CC(F)CN5CC(F)C6)nc4c2F)N(C(C)c2cccnc2N)CCO3)c1C(F)(F)F` (single isomer, unassigned; diastereomer 1) [Compound 241, (*)3-(1-(5-(5-amino-4-fluoro-3-methyl-2-(trifluoromethyl)phenyl)-2-(((2R or 2S,6R or 6S)-2,6-difluorotetrahydro-1H-pyrrolizin-7a(5H)-yl)methoxy)-4-fluoro-8,9-dihydro-10H-7-oxa-1,3,6,10-tetraazacyclohepta[de]naphthalen-10-yl)ethyl)pyridin-2-amine (diastereomer 1)], the IC50 amounted to 0.2 nM in assay [1] (setting [4]), 13 nM in assay [2] (setting [5]) and 0.9 nM in assay [3] (setting [6]).
For the compound `CC(c1cccnc1N)N1CCOc2nc(-c3cc(N)c(F)c(Cl)c3C(F)(F)F)c(F)c3nc(OCC45CC(F)CN4CC(F)C5)nc1c23` (single isomer, unassigned; diastereomer 1) [Compound 245, (*)3-(1-(5-(5-amino-3-chloro-4-fluoro-2-(trifluoromethyl)phenyl)-2-(((2R or 2S,6R or 6S)-2,6-difluorotetrahydro-1H-pyrrolizin-7a(5H)-yl)methoxy)-4-fluoro-8,9-dihydro-10H-7-oxa-1,3,6,10-tetraazacyclohepta[de]naphthalen-10-yl)ethyl)pyridin-2-amine (diastereomer 1)], the figures for the IC50 in assay [1] (setting [4]), in assay [2] (setting [5]) and in assay [3] (setting [6]) were 0.2 nM, 10 nM and 0.5 nM, respectively.
In the case of `CC(c1cccnc1N)N1c2nc(OC[C@@]34CCCN3C[C@H](F)C4)nc3c(F)c(-c4c(C(F)(F)F)ccc5c4CCCN5)nc(c23)OC[C@@H]1C` (single isomer, unassigned; diastereomer 1) [Compound 338, (*)3-(1-((5R or 5S,9S)-4-fluoro-2-(((2R,7aS)-2-fluorotetrahydro-1H-pyrrolizin-7a(5H)-yl)methoxy)-9-methyl-5-(6-(trifluoromethyl)-1,2,3,4-tetrahydroquinolin-5-yl)-8,9-dihydro-10H-7-oxa-1,3,6,10-tetraazacyclohepta[de]naphthalen-10-yl)ethyl)pyridin-2-amine (diastereomer 1)], the figures for the IC50 in assay [1] (setting [4]), in assay [2] (setting [5]) and in assay [3] (setting [6]) were 23 nM, above 100 nM and 49 nM, respectively.
The matching figures for `[2H]C1([2H])CC[C@@]2(C([2H])([2H])Oc3nc4c5c(nc(-c6cc(N)c(F)c(C)c6C(F)(F)F)c(F)c5n3)OCCN4C(C)c3cccnc3N)C[C@]([2H])(F)CN12` (single isomer, unassigned; diastereomer 2) [Compound 179, (*)3-(1-(5-(5-amino-4-fluoro-3-methyl-2-(trifluoromethyl)phenyl)-4-fluoro-2-(((2R or 2S,7aS)-2-fluorotetrahydro-1H-pyrrolizin-7a(5H)-yl-2,5,5-d3)methoxy-d2)-8,9-dihydro-10H-7-oxa-1,3,6,10-tetraazacyclohepta[de]naphthalen-10-yl)ethyl)pyridin-2-amine (diastereomer 2)]: 1 nM, 20 nM and 3 nM.
For the compound `Cc1c(F)c(N)cc(-c2nc3c4c(nc(OC[C@@]56CCCN5C[C@]5(CC5(F)F)C6)nc4c2F)N(C(C)c2cccnc2N)CCO3)c1C(F)(F)F` (single isomer, unassigned; diastereomer 2) [Compound 239, (*)3-(1-(5-(5-amino-4-fluoro-3-methyl-2-(trifluoromethyl)phenyl)-2-(((1R or 1S,7a′S)-2,2-difluorodihydro-1′H,3′H-spiro[cyclopropane-1,2′-pyrrolizin]-7a′(5′H)-yl)methoxy)-4-fluoro-8,9-dihydro-10H-7-oxa-1,3,6,10-tetraazacyclohepta[de]naphthalen-10-yl)ethyl)pyridin-2-amine (diastereomer 2)], the IC50 amounted to 0.3 nM in assay [1] (setting [4]), 2 nM in assay [2] (setting [5]) and 0.4 nM in assay [3] (setting [6]).
With `Cc1c(F)c(N)cc(-c2nc3c4c(nc(OCC56CC(F)CN5CC(F)C6)nc4c2F)N(C(C)c2cccnc2N)CCO3)c1C(F)(F)F` (single isomer, unassigned; diastereomer 2) [Compound 242, (*)3-(1-(5-(5-amino-4-fluoro-3-methyl-2-(trifluoromethyl)phenyl)-2-(((2R or 2S,6R or 6S)-2,6-difluorotetrahydro-1H-pyrrolizin-7a(5H)-yl)methoxy)-4-fluoro-8,9-dihydro-10H-7-oxa-1,3,6,10-tetraazacyclohepta[de]naphthalen-10-yl)ethyl)pyridin-2-amine (diastereomer 2)], the IC50 in assay [1] (setting [4]) was 0.4 nM; in assay [2] (setting [5]), above 100 nM; in assay [3] (setting [6]) it was 3 nM.
`CC(c1cccnc1N)N1CCOc2nc(-c3cc(N)c(F)c(Cl)c3C(F)(F)F)c(F)c3nc(OCC45CC(F)CN4CC(F)C5)nc1c23` (single isomer, unassigned; diastereomer 2) [Compound 246, (*)3-(1-(5-(5-amino-3-chloro-4-fluoro-2-(trifluoromethyl)phenyl)-2-(((2R or 2S,6R or 6S)-2,6-difluorotetrahydro-1H-pyrrolizin-7a(5H)-yl)methoxy)-4-fluoro-8,9-dihydro-10H-7-oxa-1,3,6,10-tetraazacyclohepta[de]naphthalen-10-yl)ethyl)pyridin-2-amine (diastereomer 2)]: the IC50 in assay [1] (setting [4]) turned out to be 0.4 nM; in assay [2] (setting [5]) it was 63 nM; in assay [3] (setting [6]), 2 nM.
`CC(c1cccnc1N)N1c2nc(OC[C@@]34CCCN3C[C@H](F)C4)nc3c(F)c(-c4c(C(F)(F)F)ccc5c4CCCN5)nc(c23)OC[C@@H]1C` (single isomer, unassigned; diastereomer 2) [Compound 339, (*)3-(1-((5R or 5S,9S)-4-fluoro-2-(((2R,7aS)-2-fluorotetrahydro-1H-pyrrolizin-7a(5H)-yl)methoxy)-9-methyl-5-(6-(trifluoromethyl)-1,2,3,4-tetrahydroquinolin-5-yl)-8,9-dihydro-10H-7-oxa-1,3,6,10-tetraazacyclohepta[de]naphthalen-10-yl)ethyl)pyridin-2-amine (diastereomer 2)]: the IC50 in assay [1] (setting [4]), in assay [2] (setting [5]) and in assay [3] (setting [6]) was above 100 nM each time.
Take `CC(c1cccnc1N)N1CCOc2nc(-c3cc(O)cc4ccc(F)c(F)c34)c(F)c3nc(OC[C@@]45CCCN4C[C@H](F)C5)nc1c23` (stereo partly drawn) [Compound 1, 4-(10-(1-(2-Aminopyridin-3-yl)ethyl)-4-fluoro-2-(((2R,7aS)-2-fluorotetrahydro-1H-pyrrolizin-7a(5H)-yl)methoxy)-9,10-dihydro-8H-7-oxa-1,3,6,10-tetraazacyclohepta[de]naphthalen-5-yl)-5,6-difluoronaphthalen-2-ol]: the IC50 in assay [1] (read-out: NCI-H358 (KRAS G12C) IC50, pERK1/2, 2 days) stood at 0.7 nM; in assay [2] (read-out: PANC-1 (KRAS G12D) IC50, pERK1/2, 2 days), 6 nM; in assay [3] (read-out: NCI-H441 (KRAS G12V) IC50, pERK1/2, 2 days), 3 nM.
Turning to `Cc1cc2[nH]ncc2c(-c2nc3c4c(nc(OC[C@@]56CCCN5C[C@H](F)C6)nc4c2F)N(C(C)c2cccnc2N)CCO3)c1C` (stereo partly drawn) [Compound 2, 3-(1-(5-(5,6-Dimethyl-1H-indazol-4-yl)-4-fluoro-2-(((2R,7aS)-2-fluorotetrahydro-1H-pyrrolizin-7a(5H)-yl)methoxy)-8,9-dihydro-1OH-7-oxa-1,3,6,10-tetraazacyclohepta[de]naphthalen-10-yl)ethyl)pyridin-2-amine], the IC50 in assay [1] (setting [4]) was found to be 9 nM; in assay [2] (setting [5]), 321 nM; in assay [3] (setting [6]), 42 nM.
In the case of `Cc1cc2[nH]ncc2c(-c2nc3c4c(nc(O)nc4c2F)N(C(C)c2cccnc2N)CCO3)c1C` (stereo not drawn) [Compound 3, 10-(1-(2-Aminopyridin-3-yl)ethyl)-5-(5,6-dimethyl-1H-indazol-4-yl)-4-fluoro-9,10-dihydro-8H-7-oxa-1,3,6,10-tetraazacyclohepta[de]naphthalen-2-ol], the IC50 in assay [1] (setting [4]), in assay [2] (setting [5]) and in assay [3] (setting [6]) was above 1000 nM throughout.
